Test results: US20050004163A1, “3-(diarylmethylene)-8-azabicyclo[3.2.1]octane derivatives” (priority 2000, published 2005)

molecular target: T1, μ-opioid receptor (Rattus norvegicus, UniProt P33535); assay: Rat brain μ-opioid receptor binding assay ([3H]DAMGO); details: 10 nM solutions of the compounds, read-out: MOR binding Ki
T1 construct: the forebrains are homogenized in Tris buffer in a Teflon®-glass homogenizer; from tissue; host or cells: forebrain of male Wistar rats (particulate membrane preparation)
Description: Rat Brain μ-Opioid Receptor Binding Assay
Male, Wistar rats (150-250 g, VAF, Charles River, Kingston, N.Y.) are killed by cervical dislocation and their brains removed and placed immediately in ice cold Tris HCl buffer (50 mM, pH 7.4). The forebrains are separated from the remainder of the brain by a coronal transection, beginning dorsally at the colliculi and passing ventrally through the midbrain-pontine junction. After dissection, the forebrains are homogenized in Tris buffer in a Teflon®-glass homogenizer. The homogenate is diluted to a concentration of 1 g of forebrain tissue per 100 mL Tris buffer and centrifuged at 39,000×G for 10 min. The pellet is resuspended in the same volume of Tris buffer with several brief pulses from a Polytron homogenizer. This particulate preparation is used for the μ-opioid binding assays. […] The tubes and filters are rinsed three times with 4 mL of 10 mM HEPES (pH 7.4) and the radioactivity associated with the filter circles determined using Formula 989 scintillation fluid (New England Nuclear, Boston, Mass.) in a scintillation counter.
The data are used to calculate either the % inhibition compared to control binding (when only a single concentration of test compound is evaluated) or a Ki value (when a range of concentrations is tested).
% Inhibition is calculated as follows: [formula]
Ki value is calculated using the LIGAND (Munson, P. J. and Rodbard, D., Anal. Biochem. 107: 220-239, 1980) data analysis program.

T1 sequence (P33535 whole entry): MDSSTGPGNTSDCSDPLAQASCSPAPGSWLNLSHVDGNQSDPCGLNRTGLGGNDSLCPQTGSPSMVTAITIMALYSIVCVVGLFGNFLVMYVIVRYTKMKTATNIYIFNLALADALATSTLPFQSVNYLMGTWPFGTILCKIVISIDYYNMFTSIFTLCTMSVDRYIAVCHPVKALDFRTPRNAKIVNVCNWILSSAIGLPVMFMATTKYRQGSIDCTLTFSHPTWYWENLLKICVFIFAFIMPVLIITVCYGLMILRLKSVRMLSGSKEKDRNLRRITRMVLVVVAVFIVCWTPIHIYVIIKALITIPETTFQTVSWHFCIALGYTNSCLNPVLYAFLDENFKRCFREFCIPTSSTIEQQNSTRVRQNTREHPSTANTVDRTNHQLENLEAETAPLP

Structure (SMILES) | Ki [nM]
CCNC(=O)c1ccc(C(=C2CC3CCC(C2)N3C(=O)OCC)c2ccc(O)c(OC)c2)cc1 [Cpd 172, 3-[(4-Ethylcarbamoyl-phenyl)-(4-hydroxy-3-methoxy-phenyl)-methylene]-8-aza-bicyclo[3.2.1]octane-8-carboxylic acid ethyl ester] | 713
CCCCN1C2CCC1CC(=Cc1ccc(C(=O)NCC)cc1)C2 [Cpd 53] | 262
CCNC(=O)c1ccc(C(=C2CC3CCC(C2)N3C(=O)OCC)c2cc(C)c(O)c(C)c2)cc1 [Cpd 173, 3-[(4-Ethylcarbamoyl-phenyl)-(4-hydroxy-3,5-dimethyl-phenyl)-methylene]-8-aza-bicyclo[3.2.1]octane-8-carboxylic acid ethyl ester] | 2070
CCNC(=O)c1ccc(C=C2CC3CCC(C2)N3Cc2ccoc2)cc1 [Cpd 36] | 109
CCNC(=O)c1ccc(C(=C2CC3CCC(C2)N3Cc2ccsc2)c2ccc3c(c2)OCO3)cc1 [Cpd 7] | 3.05
CCNC(=O)c1ccc(C(Br)=C2CC3CCC(C2)N3Cc2ccc(NC(C)=O)cc2)cc1 [Cpd 21] | 48.2
CCNC(=O)c1ccc(C(Br)=C2CC3CCC(C2)N3Cc2ccco2)cc1 [Cpd 24] | 21.7
CCNC(=O)c1ccc(C(=C2CC3CCC(C2)N3Cc2ccccn2)c2ccc(C(N)=O)cc2)cc1 [Cpd 183] | 5050
CCNC(=O)c1ccc(C(Br)=C2CC3CCC(C2)N3Cc2ccc3ccccc3n2)cc1 [Cpd 25] | 95
CCNC(=O)c1ccc(C=C2CC3CCC(C2)N3Cc2ccc(Cl)s2)cc1 [Cpd 77] | 356
CCNC(=O)c1ccc(C=C2CC3CCC(C2)N3Cc2ccc3ccccc3n2)cc1 [Cpd 35] | 532

same assay, conditions: MOR binding Ki

Structure (SMILES) | Ki [nM]
CCNC(=O)c1ccc(C(=C2CC3CCC(C2)N3CC=C(C)C)c2cccc(-c3nnn[nH]3)c2)cc1 [Cpd 163] | 49.3
CCNC(=O)c1ccc(C(=C2CC3CCC(C2)N3Cc2ccco2)c2cccc(-c3nnn[nH]3)c2)cc1 [Cpd 164, N-ethyl-4{(8-furan-2-ylmethyl-8-aza-bicyclo[3.2.1]oct-3-ylidene)-[3-(1H-tetrazol-5-yl)-phenyl]-methyl}-benzamide] | 2.32
CCNC(=O)c1ccc(C(=C2CC3CCC(C2)N3)c2nnn[nH]2)cc1 (single isomer, unassigned) [Cpd 202] | 8120
CCNC(=O)c1ccc(C(=C2CC3CCC(C2)N3Cc2ccccn2)c2cnc3ccccc3c2)cc1 [Cpd 66] | 142
CCNC(=O)c1ccc(C(=C2CC3CCC(C2)N3CCc2ccccc2)c2cc(C(=O)O)cc([N+](=O)[O-])c2)cc1 [Cpd 157] | 8.57
CCNC(=O)c1ccc(C(=C2CC3CCC(C2)N3CC=C(C)C)c2cccc3cccnc23)cc1 [Cpd 67] | 119
CCNC(=O)c1ccc(C(=C2CC3CCC(C2)N3Cc2ccc3ccccc3n2)c2cccc(C#N)c2)cc1 [Cpd 20] | 129
CCNC(=O)c1ccc(C(=C2CC3CCC(C2)N3Cc2ccc(NC(C)=O)cc2)c2ccc3c(c2)OCO3)cc1 [Cpd 5] | 73
CCNC(=O)c1ccc(C=C2CC3CCC(C2)N3CCc2ccccc2)cc1 [Cpd 50, N-Ethyl-4-(8-phenethyl-8-aza-bicyclo[3.2.1]oct-3-ylidenemethyl)-benzamide] | 44.3
CCNC(=O)c1ccc(C(=C2CC3CCC(C2)N3Cc2ccoc2)c2cc(N)cc(C(=O)O)c2)cc1 [Cpd 110] | 9140
CCN(CC)C(=O)c1ccc(C(=C2CC3CCC(C2)N3C(=N)N)c2ccccc2)cc1 [Cpd 198, 4-[(8-Carbamimidoyl-8-aza-bicyclo[3.2.1]oct-3-ylidene)-phenyl-methyl]-N,N-diethyl-benzamide] | 10000
CCN(CC)C(=O)c1ccc(C(=C2CC3CCC(C2)N3C#N)c2ccccc2)cc1 [Cpd 197, 4-[(8-cyano-8-aza-bicyclo[3.2.1]oct-3-ylidene)-phenyl-methyl]-N,N-diethylbenzamide] | 10000
CCNC(=O)c1ccc(C(=C2CC3CCC(C2)N3CC=C(C)C)c2ccc([N+](=O)[O-])cc2)cc1 [Cpd 136] | 3.03
CCNC(=O)c1ccc(C=C2CC3CCC(C2)N3Cc2[nH]cnc2C)cc1 [Cpd 37] | 1470
CCNC(=O)c1ccc(C(=C2CC3CCC(C2)N3Cc2ccsc2)c2cccc(-c3nnn[nH]3)c2)cc1 [Cpd 169] | 14.2
CCNC(=O)c1ccc(C(=C2CC3CCC(C2)N3Cc2ccccn2)c2ccc(CO)cc2)cc1 [Cpd 193] | 25.3
CCNC(=O)c1ccc(C=C2CC3CCC(C2)N3Cc2ccsc2)cc1 [Cpd 33] | 198
CCNC(=O)c1ccc(C(=C2CC3CCC(C2)N3Cc2ccco2)c2cccc(CO)c2)cc1 [Cpd 179] | 8.43
CCNC(=O)c1ccc(C(=C2CC3CCC(C2)N3Cc2nnn[nH]2)c2ccccc2)cc1 [Cpd 90, N-Ethyl-4-{phenyl-[8-(1H-tetrazol-5-ylmethyl)-8-aza-bicyclo[3.2.1]oct-3-ylidene]-methyl}-benzamide] | 406
CCNC(=O)c1ccc(C(=C2CC3CCC(C2)N3C(=O)Cc2ccccc2)c2cccnc2)cc1 [Cpd 200, N-Ethyl-4-[(8-phenylacetyl-8-aza-bicyclo[3.2.1]oct-3-ylidene)-pyridin-3-yl-methyl]-benzamide] | 13.3
CCNC(=O)c1ccc(C(Br)=C2CC3CCC(C2)N3Cc2ncc[nH]2)cc1 [Cpd 22] | 58.5
CCNC(=O)c1ccc(C(=C2CC3CCC(C2)N3Cc2cccs2)c2cc(N)cc(C(=O)O)c2)cc1 [Cpd 120] | 5360
CCNC(=O)c1ccc(C(=C2CC3CCC(C2)N3Cc2ccsc2)c2cc(C(=O)O)cc([N+](=O)[O-])c2)cc1 [Cpd 161] | 10000
CCNC(=O)c1ccc(C(=C2CC3CCC(C2)N3Cc2ccco2)c2ccc(C(N)=O)cc2)cc1 [Cpd 180] | 10

Structure (SMILES) | Ki [nM]
CCNC(=O)c1ccc(C(=C2CC3CCC(C2)N3Cc2ccco2)c2ccc(CC(N)C(=O)O)cc2)cc1 (stereo not shown) [Cpd 124] | 94.6
CCNC(=O)c1ccc(C(=C2CC3CCC(C2)N3CC=C(C)C)c2cccc(C(=O)O)c2)cc1 [Cpd 47, 3{(4-Ethylcarbamoyl-phenyl)-[8-(3-methyl-but-2-enyl)-8-aza-bicyclo[3.2.1]oct-3-ylidene]-methyl}-benzoic acid] | 125
CCNC(=O)c1ccc(C(=C2CC3CCC(C2)N3CC=C(C)C)c2cccc(CN)c2)cc1 [Cpd 156] | 5450
CCNC(=O)c1ccc(C(=C2CC3CCC(C2)N3Cc2nccs2)c2ccc(C(=O)O)cc2)cc1 [Cpd 174] | 304
CCNC(=O)c1ccc(C(=C2CC3CCC(C2)N3Cc2nccs2)c2cccc(-c3nnn[nH]3)c2)cc1 [Cpd 167] | 5.35
CCNC(=O)c1ccc(C(=C2CC3CCC(C2)N3Cc2ccoc2)c2ccc(C(=O)O)cc2)cc1 [Cpd 97] | 11.9
CCNC(=O)c1ccc(C(=C2CC3CCC(C2)N3CC#N)c2ccccc2)cc1 [Cpd 43, 4-[(8-Cyanomethyl-8-aza-bicyclo[3.2.1]oct-3-ylidene)-phenyl-methyl]-N-ethyl-benzamide] | 721
CCNC(=O)c1ccc(C(=C2CC3CCC(C2)N3Cc2csc([N+](=O)[O-])c2)c2cccnc2)cc1 [Cpd 74] | 37.5
CCNC(=O)c1ccc(C(=C2CC3CCC(C2)N3CCc2ccccc2)c2ccc([N+](=O)[O-])cc2)cc1 [Cpd 134] | 7.57
CCNC(=O)c1ccc(C(=C2CC3CCC(C2)N3Cc2ccsc2)c2nnn[nH]2)cc1 [Cpd 148] | 329
CCNC(=O)c1ccc(C(=C2CC3CCC(C2)N3Cc2ccc3ccccc3n2)c2cccc(F)c2)cc1 [Cpd 3] | 74.1
CCNC(=O)c1ccc(C(=C2CC3CCC(C2)N3Cc2ccco2)c2ccc(CCC(=O)O)cc2)cc1 [Cpd 125] | 47.6
CCNC(=O)c1ccc(C(=C2CC3CCC(C2)N3CCc2ccccc2)c2cccc(-c3nnn[nH]3)c2)cc1 [Cpd 166] | 50.3
CCNC(=O)c1ccc(C(=C2CC3CCC(C2)N3C(=O)c2ccccn2)c2cccnc2)cc1 [Cpd 213] | 10000
CCNC(=O)c1ccc(C(=C2CC3CCC(C2)N3Cc2nccs2)c2ccc([N+](=O)[O-])cc2)cc1 [Cpd 130] | 221
CCNC(=O)c1ccc(C(=C2CC3CCC(C2)N3C(=O)c2ccoc2)c2cccnc2)cc1 [Cpd 214] | 580
CCNC(=O)c1ccc(C(=C2CC3CCC(C2)N3Cc2nccs2)c2cccc(CN)c2)cc1 [Cpd 160] | 7230
CCNC(=O)c1ccc(C(=C2CC3CCC(C2)N3Cc2ccccn2)c2cc(C(=O)O)cc([N+](=O)[O-])c2)cc1 [Cpd 154] | 91.3
CCN(CC)C(=O)c1ccc(C(Br)=C2CC3CCC(C2)N3)cc1 [Cpd 49, 4-[(8-Aza-bicyclo[3.2.1]oct-3-ylidene)-bromo-methyl]-N,N-diethylbenzamide] | 100000
CCNC(=O)c1ccc(C(=C2CC3CCC(C2)N3Cc2ccoc2)c2cccc(CN)c2)cc1 [Cpd 153] | 71.1
CCNC(=O)c1ccc(C(=C2C[C@H]3CC[C@@H](C2)N3Cc2ccsc2)c2ccc(CO)cc2)cc1 (single isomer, unassigned) [Cpd 196, N-Ethyl-4-[(4-hydroxymethyl-phenyl)-(8-thiophen-3-ylmethyl-8-aza-bicyclo[3.2.1]oct-3-ylidene)-methyl]-benzamide] | 4.1
CCNC(=O)c1ccc(C(=C2C[C@H]3CC[C@@H](C2)N3C(=O)Cc2ccccc2)c2cccnc2)cc1 (single isomer, unassigned) [Cpd 217] | 3.07
CCNC(=O)c1ccc(C(=C2CC3CCC(C2)N3Cc2ccsc2)c2ccc(C(N)=O)cc2)cc1 [Cpd 191] | 22.1
